Test results as given in patent publication US11787790B2, “Benzimidazole derivative having fluorine-containing substituent, preparation and application thereof” (YUNBAIYAO ZHENGWU SCIENCE AND TECHNOLOGY (SHANGHAI) CO., …, priority 2020, dated 2023).

What was measured:
[1] = tested on: NCI-H1975 cells (human non-small cell lung adenocarcinoma cells); assay: CCK-8 anti-proliferation assay, NCI-H1975 cells; type: cell-based; conditions: CCK-8, 72 hours incubation
Experimental: (§1) The anti-proliferation activities of compounds 1-11 to U87MG cells (human malignant glioma cells, ATCC 5018014), NCI-H1975 cells (human non-small cell lung adenocarcinoma cells, ATCC 57849016), A549 cells (human non-small cell lung cancer cells, ATCC 7503618), HCT 116 (human colon cancer cells, ATCC 4587576), and MCF-7 (human breast cancer cells, ATCC 5105360) were verified by using a CCK-8 method.
(§2) A sample stock solution with a concentration of 20 μM was prepared first. The stock solution was sequentially diluted to obtain 10 samples with concentrations of 20000 nM, 4000 nM, 800 nM, 160 nM, 32 nM, 6.4 nM, 1.28 nM, 0.256 nM, 0.0512 nM, and 0.01024 nM, respectively.
(§3) 50 μL of cell suspension with density of 2*10^4 cells/mL was prepared in 96-well plates followed by pre-culturing in the incubator for 24 hours (37° C., 5% CO2). 50 μL of afore-mentioned sample solution was added into each well. After incubated for 72 hours, 10 μl of CCK-8 solution was added into each well, and then further incubated for additional 2 hours.

[2] = tested on: HCT 116 (human colon cancer cells); assay: CCK-8 anti-proliferation assay, HCT 116 cells; type: cell-based; conditions: CCK-8, 72 hours incubation, read-out: HCT116 cell IC50
Experimental: as §1, §2, §3

[3] = Determination of half-lethal dose (LD50) in mice; conditions: both sexes, mouse, in vivo, Kunming mice, gastric administration, Bliss calculation method
Experimental: The SPF-grade Kunming mice, belonging to the outbred stock and weighing 20±2 g, were selected (a ratio of the males to the females was 1:1). The dosage range of each compound was explored through pre-experiments. After that, formal tests were carried out. In the range of 0-100% of the lethal dose obtained by the pre-experiments, five doses were selected to increase or decrease according to the isobaric series to allow the mortality of one half of the groups to be 50% or above, and the other half to be 50% or less. After animal grouping and dosage calculation were completed, gastric administration was performed according to the group. The time from the administration to the beginning of the occurrence of toxic reaction, the poisoning phenomenon and the occurrence sequence thereof, the time of the first occurrence of death, the time of death concentration, and the time of the last occurrence of death were recorded. The number of deaths in each group was recorded day by day.

[4] = tested on: U87MG cells (human malignant glioma cells); assay: CCK-8 anti-proliferation assay, U87MG cells; type: cell-based; conditions: U-87 MG, CCK-8, 72 hours incubation, read-out: U87MG cell IC50
Experimental: as §1, §2, §3

[5] = tested on: MCF-7 (human breast cancer cells); assay: CCK-8 anti-proliferation assay, MCF-7 cells; type: cell-based; conditions: MCF7, CCK-8, 72 hours incubation, read-out: MCF-7 cell IC50
Experimental: as §1, §2, §3

[6] = tested on: A549 cells (human non-small cell lung cancer cells); assay: CCK-8 anti-proliferation assay, A549 cells; type: cell-based; conditions: CCK-8, 72 hours incubation
Experimental: as §1, §2, §3

[7] = in vivo; cited from earlier work
[8] = oral administrated; cited from earlier work

Structure (SMILES)	IC50 [1] [nM]	IC50 [2] [nM]	LD50 ([3]; oral) [mg/kg]	IC50 [4] [nM]	IC50 [5] [nM]	IC50 [6] [nM]	LD50 [3] [mg/kg]	crossing the blood-brain barrier [7]	bioavailability [8] [%]
N#CCCNc1nonc1-c1nc2ccccc2n1CC(F)(F)c1ccc(N)cc1 [Compound 1, 3-[(4-{1-[2-(4-aminophenyl)-2,2-difluoroethyl]-1H-benzimidazol-2-yl}-1,2,5-oxadiazol-3-yl)amino] propionitrile]	19.4	19.7	267	31.3	33	29	–	–	–
N#CCCNc1nonc1-c1nc2c(O)cccc2n1CC(F)(F)c1ccc(N)cc1 [Compound 2]	31.2	28.3	245	22.4	17.4	18.2	–	–	–
N#CCCNc1nonc1-c1nc2cc(O)ccc2n1CC(F)(F)c1ccc(N)cc1 [Compound 3]	13.3	13.6	239	13.2	13.2	26.8	–	–	–
N#CCCNc1nonc1-c1nc2c(Cl)cccc2n1CC(F)(F)c1ccc(N)cc1 [Compound 4]	14.9	12.1	262	27.3	21.7	12.9	–	–	–
N#CCCNc1nonc1-c1nc2cc(Cl)ccc2n1CC(F)(F)c1ccc(N)cc1 [Compound 5]	27.4	35.8	264	15.7	16.9	13.2	–	–	–
N#CCCNc1nonc1-c1nc2cc(C(F)(F)F)ccc2n1CC(F)(F)c1ccc(N)cc1 [Compound 6]	11.9	17.2	254	34.2	13.2	14.7	–	–	–
Cc1ccc2c(c1)nc(-c1nonc1NCCC#N)n2CC(F)(F)c1ccc(N)cc1 [Compound 7]	32.4	13.7	239	12.5	25.7	13.9	–	–	–
N#CCCNc1nonc1-c1nc2ccccc2n1CC(F)c1ccc(N)cc1 (stereo not drawn) [Compound 8, 3-[(4-{1-[2-(4-aminophenyl)-2-fluoroethyl]-1H-benzimidazol-2-yl}-1,2,5-oxadiazol-3-yl)amino] propionitrile]	17.5	24.4	291	15.6	22.8	33.7	–	–	–
N#CCCNc1nonc1-c1nc2ccccc2n1C(F)(F)c1ccc(N)cc1 [Compound 9]	19.8	28.5	305	23.9	32.8	28.7	–	–	–
N#CCCNc1nonc1-c1nc2ccccc2n1CCC(F)(F)c1ccc(N)cc1 [Compound 10]	34.3	38.7	323	41.2	38.5	41.5	–	–	–
N#CCCNc1nonc1-c1nc2ccccc2n1CC(=O)c1ccc(N)cc1 [Compound 11, 3-{[4-(1-(4-aminoacetophenone)-benzimidazol-2-yl)-1,2,5-oxadiazol-3-yl]amino}propionitrile, reference compound]	42.8	52.6	–	51.2	39.2	42.4	153	capable of crossing the blood-brain barrier	–
Cn1nnc2c(C(N)=O)ncn2c1=O [Temozolomide]	–	–	–	–	–	–	–	can cross the blood-brain barrier	~100
